Laboratory results: article PMC10513951, “Identification of a dihydroorotate dehydrogenase inhibitor that inhibits cancer cell growth by proteomic profiling” (Oncology Research, 2023)

Molecular target: T1, dihydroorotate dehydrogenase (DHODH) (Homo sapiens, UniProt Q02127)
T1 construct: N-terminal His-tagged DHODH/ΔTM; Met29–Arg395
Assay: DCIP reduction enzyme assay with recombinant human DHODH
Type: biochemical

T1 sequence (Q02127 29-395): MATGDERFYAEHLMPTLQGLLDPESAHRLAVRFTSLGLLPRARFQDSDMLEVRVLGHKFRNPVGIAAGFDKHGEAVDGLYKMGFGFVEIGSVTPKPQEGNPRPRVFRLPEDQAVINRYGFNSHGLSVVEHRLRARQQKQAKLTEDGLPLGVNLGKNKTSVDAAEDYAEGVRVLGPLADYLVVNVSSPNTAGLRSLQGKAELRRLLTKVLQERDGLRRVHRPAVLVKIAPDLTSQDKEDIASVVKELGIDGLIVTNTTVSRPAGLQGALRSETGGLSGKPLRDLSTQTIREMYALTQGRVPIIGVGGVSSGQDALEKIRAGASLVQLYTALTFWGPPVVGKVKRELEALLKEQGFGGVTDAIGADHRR

Row | Structure (SMILES) | IC50
1 | Cc1cc(=O)oc2c1ccc1oc(C(O)c3ccccc3)c(-c3ccccc3)c12 (centres unmarked) [H-006, 8-(Hydroxyphenylmethyl)-4-methyl-9-phenyl-2H-furo[2,3-h]-1-benzopyran-2-one] | 3.8 nM
2 | Cc1cc(=O)oc2c1ccc1oc(C(=O)c3ccccc3)c(-c3ccccc3)c12 [NPD723, 8-Benzoyl-4-methyl-9-phenyl-2H-furo[2,3-h]-1-benzopyran-2-one] | 1520 nM
